This test has as its target Proto-oncogene tyrosine-protein kinase Src (Homo sapiens, UniProt P12931). Description: Binding affinity against Src SH2 domain in competitive fluorescence polarization assay.

Proto-oncogene tyrosine-protein kinase Src, sequence (P12931 2-536 limits assumed): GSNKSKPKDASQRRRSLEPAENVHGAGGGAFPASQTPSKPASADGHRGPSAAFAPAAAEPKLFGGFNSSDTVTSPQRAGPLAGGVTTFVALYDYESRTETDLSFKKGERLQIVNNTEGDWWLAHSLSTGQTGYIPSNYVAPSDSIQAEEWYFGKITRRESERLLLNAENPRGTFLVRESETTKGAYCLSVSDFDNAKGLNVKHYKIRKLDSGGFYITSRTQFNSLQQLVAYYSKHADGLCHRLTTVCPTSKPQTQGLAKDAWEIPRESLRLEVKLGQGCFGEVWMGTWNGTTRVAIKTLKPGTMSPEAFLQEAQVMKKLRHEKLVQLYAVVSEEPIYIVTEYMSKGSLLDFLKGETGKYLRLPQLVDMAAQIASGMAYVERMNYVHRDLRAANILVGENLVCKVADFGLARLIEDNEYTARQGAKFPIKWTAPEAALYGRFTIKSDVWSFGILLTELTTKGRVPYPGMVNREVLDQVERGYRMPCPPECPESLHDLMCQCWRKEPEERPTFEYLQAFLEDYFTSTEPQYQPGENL

In turn, `CC(=O)N[C@@H](Cc1ccc(OP(=O)(O)O)cc1)C(=O)N[C@H]1CCCCc2cc(OCC3CCCCC3)c(C(N)=O)cc21` displayed an IC50 of 100 nM. That is a sub-micromolar value. The figure for `CC(=O)N[C@@H](Cc1ccc(OP(=O)(O)O)cc1)C(=O)N[C@H]1CCCOc2cc(OCC3CCCCC3)c(C(N)=O)cc21` is 200 nM; for `CC(=O)N[C@@H](Cc1ccc(OP(=O)(O)O)cc1)C(=O)N[C@@H]1CCCCc2cc(OCC3CCCCC3)c(C(N)=O)cc21` it is 8100 nM; for `CC(=O)N[C@@H](Cc1ccc(OP(=O)(O)O)cc1)C(=O)N[C@@H]1CCCOc2cc(OCC3CCCCC3)c(C(N)=O)cc21` it is 1600 nM. `CC[C@H](C)[C@H](NC(=O)[C@H](CCC(=O)O)NC(=O)[C@H](CCC(=O)O)NC(=O)[C@@H](N)Cc1ccc(OP(=O)(O)O)cc1)C(=O)O` showed an IC50 of 5600 nM.

A word on the IC50: it is the midpoint of a concentration-inhibition curve. A lower IC50 goes with inhibition by little substance.

The values above are taken from ChEMBL document CHEMBL1133687, “Structure-based design of novel bicyclic nonpeptide inhibitors for the src SH2 domain” (J Med Chem, 2000).
